Several values for one entry are separate records, joined by “and”; a condition that tells them apart may be missing. Equal entries are not always repeated.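 Each compound was tested at five concentrations against cells in 96-well plates for 48 hours. GI50 = concentration required for 50% inhibition of growth. TGI: concentration producing complete growth inhibition.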 *1 amine or outer side, *2 acyl side, *3 side chain or, on linkers, in order; H or OH if unused. Where a SMILES comes first, the peptide text is derived from it. Bridges are numbered along the chain shown (N, C = ends). Roman numbers before positions name the chains, in order. [ ]: non-standard residue; d: D form. Actinocin(9to1) = Cc1c2oc3c(C)ccc(C(=O)[*:1])c3nc-2c(C(=O)[*:2])c(N)c1=O; NMeF = CN[CH](Cc1ccccc1)C(=O)O; Sar = CNCC(=O)O
Experiments:
Assay in all cases: NCI tumour cell line growth inhibition, 48 h
[1] = system: LOX IMVI melanoma
[2] = system: SF-539 CNS
[3] = system: NCI-H23 lung
[4] = system: HOP-92 NSCLC
[5] = system: HCT-116 colon
[6] = system: SK-MEL-28 melanoma
[7] = system: UACC-257 melanoma
[8] = system: NCI-H226 lung
[9] = system: CCRF-CEM leukemia
[10] = system: PC-3 prostate

Structure (SMILES)	TGI [1] [µM]	TGI [2]	TGI [3]	TGI [4]	TGI [5]	TGI [6] [µM]	TGI [7] [µM]	TGI [8] [µM]	TGI [9] [µM]	TGI [10]	GI50 [1]	GI50 [5] [µM]	GI50 [9] [µM]	GI50 [2] [µM]	GI50 [8] [µM]	GI50 [4] [µM]	GI50 [6] [µM]	GI50 [7] [µM]	GI50 [3] [µM]	GI50 [10] [µM]
CN(C)C(=O)Oc1c(-c2ccccc2)c(=O)n2c3ccccc3n3c(=O)n(C)c(=O)c1c23	> 100	> 100 µM	> 100 µM	> 100 µM	> 100 µM	> 100	> 100	–	–	–	–	–	–	–	–	–	–	–	–	–
O=C(CCC(=O)C1CCC/C1=N/O)Nc1ccc(Cl)cc1 (stereo unspecified)	–	> 100 µM	> 100 µM	> 100 µM	> 100 µM	> 100	> 100	> 100	> 100	–	–	–	–	–	–	–	–	–	–	–
Cc1c2oc3c(C)ccc(C(=O)NC4C(=O)NC(C(C)C)C(=O)N5CCCC5C(=O)N(C)CC(=O)N(C)C(Cc5ccccc5)C(=O)OC4C)c3nc-2c(C(=O)NC2C(=O)NC(C(C)C)C(=O)N3CCCC3C(=O)N(C)CC(=O)N(C)C(Cc3ccccc3)C(=O)OC2C)c(N)c1=O (stereo unspecified) (I: TVP[Sar][NMeF] / II: TVP[Sar][NMeF]; ester I:1-I:C, II:1-II:C; linker I:N-II:N via Actinocin(9to1); configuration not given here)	< 0.01	< 0.01 µM and 0.0439 µM	< 0.01 µM and 0.0376 µM	< 0.0476 µM and 0.0606 µM	0.194 µM and > 1 µM	0.06	–	–	0.0102	0.0325 µM and 0.142 µM	< 0.01 µM and 0.00103 µM	< 0.01	0.000459	–	–	–	–	–	–	–
CC(=O)N/C(=C\c1ccc(Cc2nc3c([nH]2)C(=O)c2ccccc2C3=O)cc1)c1nc2c([nH]1)C(=O)c1ccccc1C2=O	> 100	> 100 µM	> 100 µM	> 100 µM	> 100 µM	> 100	> 100	> 100	> 100	–	–	–	–	–	–	–	–	–	–	–
Nc1c(C(=O)Nc2cccc(Cl)c2Cl)sc2nc3c(cc12)C(=O)CCC3	> 100	> 100 µM	–	> 100 µM	> 100 µM	> 100	> 100	> 100	> 100	–	> 100 µM	> 100	> 100	> 100	> 100	> 100	> 100	> 100	–	–
CC(=O)[O-].O=C([CH-]C(=O)c1ccccc1)c1ccccc1.O=C([CH-]C(=O)c1ccccc1)c1ccccc1.[Sm+3]	21.7	45.2 µM	15.5 µM	19.6 µM	18.2 µM	37.8	24.1	9.69	–	–	7.01 µM	5.05	–	14.6	1.52	4.96	5.87	5.66	3.1	–
COc1cc(NC(=O)C2=C(N3CCOCC3)/C(=C/c3ccc(Cl)cc3)CC2)cc(OC)c1OC	> 100	> 100 µM	> 100 µM	–	> 100 µM	> 100	> 100	> 100	–	> 100 µM	> 100 µM	28.5	–	36	34.3	–	> 100	> 100	48.8	6.06
Cn1cccc1/C=C/c1cc(Br)c(/C=C/c2cccn2C)cc1Br	56.4	31.5 µM	–	39.5 µM	43.4 µM	31.5	> 100	39.5	62.2	–	–	–	–	–	–	–	–	–	–	–
O=NN(CCCl)C(=O)NC1CCC(CC2CCC(NC(=O)N(CCCl)N=O)CC2)CC1 (stereo unspecified)	26.4	25 µM	99.6 µM	> 76.6 µM	> 100 µM	> 100	> 100	> 100	50.7	–	–	–	–	–	–	–	–	–	–	–
O=C(CCc1ccc(O)cc1)N/N=C/c1cc(Br)ccc1O	16.8	35.4 µM	> 100 µM	49.3 µM	> 100 µM	> 100	11.4	–	12.6	> 100 µM	2.07 µM	4.34	2.5	4.03	–	4.9	5.72	2.62	7.42	4.14
N#CCC(=O)N1CCCCCCC1	> 100	> 100 µM	> 100 µM	–	> 100 µM	> 100	> 100	–	> 100	–	–	–	–	–	–	–	–	–	–	–
CC(C)=CC(=O)Cc1nc2ccc([N+](=O)[O-])cc2[nH]c1=O	> 100	> 100 µM	> 100 µM	> 100 µM	> 100 µM	> 100	> 100	> 100	–	–	–	–	–	–	–	–	–	–	–	–
O=C(CC/C(CC(=O)c1ccc(Br)cc1)=N\O)Nc1ccc(Cl)c(Cl)c1	> 100	> 100 µM	> 100 µM	> 100 µM	> 100 µM	> 100	> 100	> 100	> 100	–	–	–	–	–	–	–	–	–	–	–
CCC[CH2][Sn]1([CH2]CCC)[O]CC(C)[O]1 (stereo unspecified)	2.66	3.46 µM	2.08 µM	2.52 µM	3.43 µM	3.96	2.56	4.62	0.97	–	1.23 µM	1.78	0.314	1.46	2.11	1.16	2.24	1.07	0.749	–
Cc1ccc(C(=O)CC2=Nc3nnc(CCCCCCCc4nnc5n4C(=O)C(CC(=O)c4ccc(C)cc4)=N5)n3C2=O)cc1	> 100	> 100 µM	> 100 µM	–	> 100 µM	> 100	> 100	> 100	> 100	–	–	–	–	–	–	–	–	–	–	–
CC(=O)[CH-]C(C)=O.CC(=O)[CH-]C(C)=O.CC[O-].CC[O-].[Ti+4]	> 100	> 100 µM	–	> 100 µM	–	> 100	> 100	> 100	> 100	–	> 100 µM	–	> 100	> 100	> 100	> 100	> 100	> 100	–	–
Cn1c(=O)c2/c(n(C)c1=O)=N\C=c1\c(=O)n(C)c(=O)n(C)\c1=N\C=2	–	> 100 µM	> 100 µM	> 100 µM	> 100 µM	> 100	> 100	–	> 100	–	–	–	–	–	–	–	–	–	–	–
Cc1cccc2c(O)cc(=O)oc12	> 100	> 100 µM	> 100 µM	–	> 100 µM	> 100	> 100	> 100	> 100	–	–	–	–	–	–	–	–	–	–	–
O=[N+]([O-])c1ccc(C=NC23CC4CC(CC(C4)C2)C3)cc1	> 100	> 100 µM	> 100 µM	> 100 µM	> 100 µM	> 100	> 100	> 100	> 100	–	–	–	–	–	–	–	–	–	–	–
